Eight compounds from patent US20090178158A1, “RESISTANCE AGAINST PARASITIC WEEDS” (Plant Research International B.V., priority 2005, published 2009) can be followed below.

Several values for one entry are separate records, joined by “and”; a condition that tells them apart may be missing. Identical values can stand only once. Entries after “also recorded” stand apart in the source; their conditions may differ.

In data set [1] the test system is Striga hermonthica seeds. In words: Germination bioassay: S. hermonthica seeds with root exudates of treated host seedlings (maize, cowpea, sorghum). The data set is classed as in vivo. To be noted: for maize root exudate-induced S. hermonthica germination: maize W22 grown 5 days with 100 μM fosmidomycin or 10 μM mevastatin, control 42±2%.
In data set [2] the test system is carotenoid composition of shoots and roots of maize seedlings. In words: Carotenoid analysis (HPLC) of shoots and roots of treated maize seedlings. The data set is classed as in vivo.
Another data set relates to maize seedlings. The data set is described as follows: Phenotype of inhibitor-treated maize seedlings. To be noted: 10 μM mevastatin, 100 μM fosmidomycin, 25 μM fluridone, 200 μM amitrole (21° C.), 0.1-1 mM naproxen, 1 mM sodium tungstate, 0.02-0.2 mM abscisic acid.
Data set [3] deals with Striga hermonthica seeds. The data set is classed as in vivo.
Another data set concerns Orobanche crenata seeds. The data set is classed as in vivo. The following applies: 10 μM fluridone, versus control, FIG. 3F.
Setting [4] is: Roots of 10-day old maize seedlings, 10 μM fluridone, 1 mM naproxen, 0.1 mM sodium tungstate, 0.02 mM abscisic acid, n.d. = below detection limit.
The mark [5] stands for this setting: Shoots of 10-day old maize seedlings, 10 μM fluridone, 1 mM naproxen, 0.1 mM sodium tungstate, 0.02 mM abscisic acid, n.d. = below detection limit.
Setting [6] is: maize shoots, versus control (Table 1).

Regarding `CC1=CC(=O)CC(C)(C)C1(O)/C=C/C(C)=C\C(=O)O` (racemic) [abscisic acid, (±)-abscisic acid], the “germination of S. hermonthica induced by root exudates of treated maize” value (“germination … of treated maize” for short) in the data set with Striga hermonthica seeds [1] (0.02 or 0.2 mM abscisic acid, without/with 10 μM fluridone, FIG. 3D) is “very low germination; also recorded: strongly reduced”. Besides, in data set [2] (setting [4]), the “violaxanthin, carotenoid content” value turned out to be 0.07 μg · g^−1 fwt and the “β-carotene, carotenoid content” value came out at 0.01 μg · g^−1 fwt. Further, in data set [2] (setting [5]), the “lutein, carotenoid content” value stood at 73.01 μg · g^−1 fwt; the “neoxanthin, carotenoid content” value is 115.29 μg · g^−1 fwt; the “violaxanthin, carotenoid content” value turned out to be 50.84 μg · g^−1 fwt; the “β-carotene, carotenoid content” value is reported as 47.35 μg · g^−1 fwt. For the same compound, the “β-carotene concentration lower than in control roots” value in data set [2] (abscisic acid treated maize roots (0.02 mM, Table 1)) is 50% and ~65%. The “carotenoid accumulation in shoots (β-carotene, violaxanthin, neoxanthin, lutein)” value (“carotenoid accumulation in shoots” for short) in data set [2] (setting [6]) is “decreased accumulation”. Moreover, the “morphology / appearance of treated seedlings” value (“morphology / appearance” below) in the data set on maize seedlings was “slightly thicker and more brittle”.
On to `CC1=C[C@H](O/C=C2/C(=O)O[C@@H]3c4ccccc4C[C@H]23)OC1=O` [GR24], for which, in the data set with Striga hermonthica seeds [1] (suboptimal concentration of GR24 (0.01 mg.L^−1, FIG. 3E)), the “germination of S. hermonthica induced by GR24 alone” value is 48±1%.
As for `Nc1nc[nH]n1` [amitrole, 3-amino-1,2,4-triazole], in the data set on Striga hermonthica seeds [1] (maize Dent, 200 μM amitrole, grown at 21° C., versus control, FIG. 3C), the “germination … of treated maize” value is “lower germination”. Moreover, in the data set on maize seedlings, the “morphology / appearance” value is “yellow-green phenotype”.
Consider `O=CN(O)CCCP(=O)(O)O` [fosmidomycin], for which the “maize root exudate-induced S. hermonthica germination” value with Striga hermonthica seeds [1] (FIG. 3A) is 37±2%. Besides, the “morphology / appearance” value in the data set on maize seedlings is recorded as “slightly pale-yellow leaves”.
Take `CC[C@H](C)C(=O)O[C@H]1CCC=C2C=C[C@H](C)[C@H](CC[C@@H]3C[C@@H](O)CC(=O)O3)[C@H]21` [mevastatin]: the “maize root exudate-induced S. hermonthica germination” value in the data set with Striga hermonthica seeds [1] (FIG. 3A) is listed as 33±3%.
With `COc1ccc2cc([C@H](C)C(=O)[O-])ccc2c1.[Na+]` [naproxen, (S)-6-methoxy-α-methyl-2-naphthaleneacetic acid sodium salt], in the data set with Striga hermonthica seeds [1] (in vivo, sodium salt), the “germination of S. hermonthica seeds” value was 20±1% and 15±2%. Also, in data set [2] (in vivo), the “carotenoid accumulation in shoots” value is “decreased accumulation”; the “concentration of violaxanthin higher than in control roots” value is “about 3 fold”; the “concentration of β-carotene higher than in control roots” value turned out to be 2 fold; the “lutein, carotenoid content” value is on record as 68.58 μg · g^−1 fwt. Also, the “neoxanthin, carotenoid content” value in data set [2] (in vivo) amounted to 111.81 μg · g^−1 fwt.
For the compound `[Na+].[Na+].[O]=[W](=[O])([O-])[O-]` [sodium tungstate], in the data set on Striga hermonthica seeds [1] (maize Dent, 0.1 mM and 1 mM sodium tungstate, FIG. 3D), the “effect on root exudate induced S. hermonthica germination” value was “did not affect germination; also recorded: did not have an effect”. For the same compound, in data set [2] (setting [4]), the “violaxanthin, carotenoid content” value was determined as 0.22 μg · g^−1 fwt and the “β-carotene, carotenoid content” value was 0.03 μg · g^−1 fwt. In data set [2] (setting [5]), the “lutein, carotenoid content” value is 83.94 μg · g^−1 fwt; the “neoxanthin, carotenoid content” value is listed as 147.58 μg · g^−1 fwt; the “violaxanthin, carotenoid content” value is 72.19 μg · g^−1 fwt; the “β-carotene, carotenoid content” value is given as 64.29 μg · g^−1 fwt. For the same compound, the “concentration of violaxanthin higher than in control roots” value in data set [2] (maize roots, 1 mM naproxen, 0.1 mM sodium tungstate (Table 1)) is reported as 2 fold. For the same compound, in data set [2] (setting [6]), the “carotenoid accumulation in shoots” value is on record as “did not affect carotenoid accumulation”.
With fluridone, the “effect on the attachment phase of Striga” value in the data set on Striga hermonthica seeds [3] (control experiments with GR24 inducing full germination (data not shown)) is “not affecting the attachment phase”. Further, in the data set on Striga hermonthica seeds [3] (rice, fluridone sprayed to the leaves on 3 consecutive days, even at 0.001 and 0.01 μM, FIG. 7B), the “number of germinated/attached seeds/tubercles of Striga” value was “strong, significant reduction”. For the same compound, the “number of germinated/attached Striga seeds” value in the data set with Striga hermonthica seeds [3] (rice, irrigation once with 100 mL of 0.1 μM fluridone, scored after 6 weeks, FIG. 7A) is reported as “significantly reduced”. Also, the “germination … of treated maize” value with Striga hermonthica seeds [1] (10 μM fluridone, dim light, FIG. 3B) is given as “negligible”; with Striga hermonthica seeds [1] (10 μM fluridone, normal light, control 13±1%, FIG. 3B) it was “virtually no germination”. The “germination of S. hermonthica induced by fluridone-treated cowpea root exudates with GR24” value in the data set with Striga hermonthica seeds [1] (10 μM fluridone-treated cowpea exudate plus 0.01 mg.L^−1 GR24, FIG. 3E) is given as 53±3%. In addition, in the data set with Striga hermonthica seeds [1] (cowpea watered with 10 μM fluridone for 5 days, non-treated 49±2%, FIG. 3E), the “germination of S. hermonthica seeds induced by cowpea root exudates” value amounted to 11±3%. Further, the “germination induced by root exudates lower than for control maize” value in the data set with Striga hermonthica seeds [1] (maize W22, 25 μM fluridone, 5 days, FIG. 3A) is given as “about 80%”. In addition, the “sorghum root exudate induced S. hermonthica germination” value with Striga hermonthica seeds [1] (sorghum, 4 μM fluridone, FIG. 3G) is on record as “completely blocked”. The “germination of O. crenata seeds with fluridone-treated cowpea root exudate” value in the data set on Orobanche crenata seeds is “lower than that induced by the control; also recorded: decreased this germination by about the same percentage as for S. hermonthica”. In addition, the “phytoene in treated roots” value in data set [2] (fluridone treated maize roots) was “phytoene accumulated”. For the same compound, the “phytoene in treated shoots” value in data set [2] (shoot of fluridone treated maize plants) is reported as “phytoene accumulated”.
